{"source": "patent US6673625B2", "about": "“Saccharide sensing molecules having enhanced fluorescent properties” (The Regents of the University of California, priority 1999, dated 2004)", "key": {"[1]": {"test": "Rehm-Weller estimate of free energy of photoinduced electron transfer (PET)", "type": "physicochemical", "excerpt": "The search for new fluorescent glucose transducers based on photoelectron transfer (PET) requires, among other things, an understanding of the electrochemistry of any potential donor-acceptor pair. The free energy of PET (ΔGel) can be calculated using the Rehm-Weller equation shown below:\nΔGel(kcal mol^−1)=23.06[E^0(D^+/D)−E^0(A/A^−)]−wp−wr−ΔG00 where E^0(D^+/D) is the oxidation potential of the donor, E^0(A/A^−) is the reduction potential of the acceptor, and ΔG00 is the free energy corresponding to the equilibrium energy E00 (see e.g. Kavarnos, G. J. In Fundamentals of photoinduced electron transfer, VCH Publishers: New York, N.Y., 1993; p Chapter 1 and Rehm and Weller, Ist. J. Chem. 1970, 8, 259). The quantities wp and wr are Coulombic terms for the products and reactants, and ate found to be small in polar solvents. To simplify predictions, we assume wp and wr to be zero, and estimate E00 as the energy corresponding to [λmax(ex)+λmax(em)]/2 for each fluorophore.\nΔGPET=23.06[E^0(Z^oxidation)−E^0(F^reduction)]−ΔE00],\nThe electrochemical potentials can be measured using the individual molecular groups before assembling the complete molecule.\nElectrochemistry. The search for new fluorescent glucose transducers based on PET requires, among other things, an understanding of the electrochemistry of any potential donor-acceptor pair. The free energy of PET (ΔGel) can be calculated using the Rehm-Weller equation shown in eq 1, where E^0(D^+/D) is the oxidation potential of the […]\nΔGe(kcal mol^−1)=23.06[E^0(D^+/D)−E^0(A/A^−)]−wp−wr−ΔG00 (1) donor, E^0(A/A^−) is the reduction potential of the acceptor, and ΔG00 is the free energy corresponding to the equilibrium energy E00. The quantities wp and wr are Coulombic terms for the products and reactants, and are found to be small in polar solvents. In our case, wr=0 since the reactants are neutral. To simplify predictions, we assume wp to be zero and estimate E00 as the energy corresponding to [λmax(ex)+λmax(em)]/2 for each fluorophore. […]\nit is possible to estimate the free energy of photoinduced electron transfer (PET) in these systems (see e.g. Kavamos, G. J. Fundamentals of Photoinduced Electron Transfer, VCH: New York, 1993; pp 37-40). E0(D^+/D) and E^0(A/A^−) correspond to the […] of the electron donor (i.e. amine) and electron acceptor (i.e. fluorophore), respectively. The quantity ΔG00, is the equilibrium energy, which we estimate as the energy corresponding to the equilibrium wavelength λ00. As an estimate of λ00, we use the average of the excitation and emission maxima for each fluorophore. Smaller solvent-dependent work terms for the Coulombic interaction between the reactants and products are left out for simplicity. Since the mechanism of fluorescence switching in these systems depends on PET, this gives us a rough estimate of which fluorophores should give the best response to glucose."}, "[2]": {"test": "Cyclic voltammetry (glassy carbon, Ag/AgCl reference, 0.1 M NBu4ClO4 in acetonitrile)", "type": "physicochemical", "protocol": "Samples for FT IR spectroscopy were prepared as solutions in CHCl3, and only the C═O stretches are reported. Unless otherwise stated, all NMR spectra were recorded at 500 MHz for ^1H and 125 MHz for ^13C at 20-25° C. using CDCl3 as the solvent. Unless stated otherwise, mass spectra were obtained using electrospray ionization (50 V) with a 50/50 methanol/water solvent mixture with ^1% acetic acid added. Cyclic voltammetry was conducted using a glassy carbon working electrode, platinum counter electrode, and Ag/AgCl reference electrode and carried out in a 0.1 M solution of NBu4ClO4 in acetonitrile.\nSummarized Syntheses. As the syntheses are described as a series of analogous compounds with general procedures are given below. Cyclic voltammetry was conducted using a glassy carbon working electrode, platinum counter electrode, and Ag/AgCl reference electrode and carried out in a 0.1 M solution of NBu4ClO4 in acetonitrile. Samples for fluorescence were prepared as 1.00 mM stock solutions in MeOH. A 30.0 μL aliquot of solution was then added to 3.000 mL of the appropriate solvent mixture (a combination of methanol and phosphate buffered saline—PBS). Relative quantum yields were determined by the relative output of equimolar solutions of two compounds using 3ay as a reference. Glucose additions were performed by the addition of a concentrated solution of glucose in PBS to a stirred solution of the fluorescent molecule in methanol/PBS.\nGeneral. All reactions were performed under an atmosphere of N2, followed by work-up in air. Protected boronate esters were stored under vacuum to prevent slow hydrolysis from atmospheric moisture. Unless stated otherwise, all chemicals were purchased from commercial suppliers. Anhydrous solvents from Aldrich were used for all reactions. Starting compounds known in the art such as N-n-butyl-4-chloronaphthalene-1,8-dicarboximide(1ax), 2,2-dimethylpropane-1,3-diyl[o-(bromomethyl) phenyl]boronate, were prepared by literature methods (see e.g. Daffy et al. Chem-Eur J 1998, 4, 1810-1815; de Silva et al., Chem Rev 1997, 97, 1515-1566). Samples for FT IR spectroscopy were prepared as solutions in CHCl3, and only the C═O stretches are reported here. All mass spectra were obtained using electrospray ionization (ESI/MS) with an ionization potential of 50V and a solvent system consisting of 1% acetic acid in 50/50 methanol/water. Cyclic voltammetry was conducted using a glassy carbon working electrode, platinum counter electrode, and Ag/AgCl reference electrode and carried out in a 0.1 M solution of NBu4ClO4 in acetonitrile. Samples for fluorescence measurements were prepared as 1.00 mM stock solutions in MeOH. A 30.0 μL aliquot of solution was then added to 3.000 mL of the appropriate solvent mixture (a combination of methanol and phosphate buffered saline—PBS) giving a final concentration of 10.0 μM for each complex. Changes in pH were carried out by the addition of small volumes of concentrated hydrochloric acid, acetic acid, or sodium hydroxide. Glucose additions were performed by the addition of a concentrated solution of glucose in PBS to a stirred solution of fluorophore in a cuvette. Relative quantum yield measurements were carried out by measuring the relative intensities of equimolar solutions (10.0 μM) of two fluorophores. Compound 3ay was used as the reference."}, "[3]": {"test": "Glucose sensitivity testing of chloro-oxazine-one boronate (COB)", "conditions": "glucose zero to 600 mg/dL; 66% MeOH/buffer pH 7.4; 450/560 nm", "protocol": "To investigate the conjugated organic heterocyclic ring system compounds as fluorophores, an oxazine-one system was studied. An oxazine-one is described as a neutral (uncharged) precursor to a charged oxazine dye. The relevant values for the COB system for the Rehm-Weller equation are: ΔGPET=−12.1 kcal/mole, E^0(Z^ox)=0.88V, E^0(F^red)=−1.10V, and ΔE00=57.8 kcal/mole. The compound's response to glucose in several solvent systems was characterized. A stock solution of the compound was prepared by dissolving 5.7 mg in 5 mL of methanol. Samples were prepared by adding 30 μL of this stock solution to 3 mL of solvent.\nGlucose sensitivity testing was performed on the oxazine-one compound. Samples were prepared as described above and titrated with 30 μL aliquots of concentrated glucose solution (300 mg/mL). […] Following an initial period in which the baseline fluorescence level was determined, four 30 μL aliquots of glucose were introduced into the sample resulting in a final glucose concentration of approximately 1200 mg/dL. In this solvent system, glucose transduction yields a 45% increase in the fluorescence intensity as the glucose concentration is increased from zero to 600 mg/dL.\nCOB's response was evaluated in several solvent systems. […]\nBased on these spectra, excitation and emission wavelengths of 450 nm and 560 nm, respectively, were chosen for subsequent steady-state fluorescence tests. […]"}}, "data": [{"substance": "6-chloro-5H-benzo[a]phenoxazin-5-one boronate [COB]", "values": [{"measurement": "ΔE00, energy of the excited state fluorophore", "setting": "[1]", "value": 57.8, "unit": "kcal/mol"}, {"measurement": "ΔGPET", "setting": "[1]; simplified Rehm-Weller equation", "value": -12.1, "unit": "kcal/mol"}, {"measurement": "E^0(F^red), reduction potential of the fluorophore", "setting": "[2]", "value": "−1.10", "unit": "V"}, {"measurement": "E^0(Z^ox), oxidation potential of the switch", "setting": "[2]", "value": 0.88, "unit": "V"}, {"measurement": "increase in the fluorescence intensity", "setting": "[3]", "value": 45, "unit": "%"}]}]}
